Measured values: US20240158446A1, “CYCLIC COMPOUND HAVING SELECTIVE INHIBITORY ACTION ON KRAS OVER HRAS AND NRAS” (CHUGAI SEIYAKU KABUSHIKI KAISHA, priority 2021, published 2024)
Where two headings read alike, the source gives them in different places. *1 amine or outer side, *2 acyl side, *3 side chain or, on linkers, in order; H or OH if unused. Where a SMILES comes first, the peptide text is derived from it. Bridges are numbered along the chain shown (N, C = ends). [ ]: non-standard residue; d: D form. The star is where a group is joined. hPhe(3,5-F2-4-CF3) = N[C@@H](CCc1cc(F)c(C(F)(F)F)c(F)c1)C(=O)O; hPhe(3-Cl-4-CF3) = N[C@@H](CCc1ccc(C(F)(F)F)c(Cl)c1)C(=O)O; NPrPhe(4-CF3) = CCCN[C@@H](Cc1ccc(C(F)(F)F)cc1)C(=O)O; NMeGly(cPent) = CN[C@H](C(=O)O)C1CCCC1; Pro(4,4-F2) = O=C(O)[C@@H]1CC(F)(F)CN1; X8 = C[C@@](N[*:1])(C(=O)[*:2])C1CC1; Hyp = O=C(O)[C@@H]1C[C@@H](O)CN1; NMeD = CN[C@@H](CC(=O)O)C(=O)O; NMeL = CN[C@@H](CC(C)C)C(=O)O; NEtAla = CCN[C@@H](C)C(=O)O; NMeAbu = CC[C@H](NC)C(=O)O; Morpholide = C1CN(*)CCO1; NMeA = CN[C@@H](C)C(=O)O; Ac5c = NC1(C(=O)O)CCCC1; Aze = O=C(O)[C@@H]1CCN1; NEtG = CCNCC(=O)O; Sar = CNCC(=O)O

Assays:
[1] = molecular target: GDP-bound KRAS wild-type protein (Homo sapiens, UniProt P01116); test: Binding to KRAS by surface plasmon resonance (SPR), Single Cycle Kinetics; details: GDP-bound KRAS wild-type protein, read-out: KRAS KD
[2] = molecular target: GDP-bound NRAS wild-type protein (Homo sapiens, UniProt P01111); test: Binding to NRAS by surface plasmon resonance (SPR), Single Cycle Kinetics; details: for NRAS/KRAS (ratio of KD value for NRAS to KD value for KRAS) / NRAS/KRAS (ratio of KD value with respect to NRAS to KD value with respect to KRAS): SPR, GDP-bound NRAS wild-type protein vs GDP-bound KRAS wild-type protein
[3] = molecular target: GDP-bound HRAS wild-type protein (Homo sapiens, UniProt P01112); test: Binding to HRAS by surface plasmon resonance (SPR), Single Cycle Kinetics; details: for HRAS/KRAS (ratio of KD value for HRAS to KD value for KRAS) / HRAS/KRAS (ratio of KD value with respect to HRAS to KD value with respect to KRAS): SPR, GDP-bound HRAS wild-type protein vs GDP-bound KRAS wild-type protein
[4] = SPR Single Cycle Kinetics, 1:1 binding model

Chain of GDP-bound KRAS wild-type protein (P01116 whole entry): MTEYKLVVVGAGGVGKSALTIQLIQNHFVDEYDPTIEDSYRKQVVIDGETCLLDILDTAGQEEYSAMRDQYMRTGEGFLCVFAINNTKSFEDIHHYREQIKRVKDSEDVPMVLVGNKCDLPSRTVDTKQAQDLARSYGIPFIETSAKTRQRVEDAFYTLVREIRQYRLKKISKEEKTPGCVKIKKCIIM
Chain of GDP-bound NRAS wild-type protein (P01111 whole entry): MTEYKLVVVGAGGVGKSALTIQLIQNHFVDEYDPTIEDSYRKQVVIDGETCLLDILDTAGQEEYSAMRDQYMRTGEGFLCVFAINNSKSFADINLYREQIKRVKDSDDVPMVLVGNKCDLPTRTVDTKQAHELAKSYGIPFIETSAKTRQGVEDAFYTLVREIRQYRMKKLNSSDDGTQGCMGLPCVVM
Chain of GDP-bound HRAS wild-type protein (P01112 whole entry): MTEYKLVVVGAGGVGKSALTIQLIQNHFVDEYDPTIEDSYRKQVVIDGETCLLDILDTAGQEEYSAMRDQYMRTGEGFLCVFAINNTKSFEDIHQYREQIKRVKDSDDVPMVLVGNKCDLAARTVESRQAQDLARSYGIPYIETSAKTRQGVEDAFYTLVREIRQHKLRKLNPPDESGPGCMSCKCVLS

SMILES	Kd [1, 4] [nM]	NRAS/KRAS (ratio of KD value for NRAS to KD value for KRAS) [2]	HRAS/KRAS (ratio of KD value for HRAS to KD value for KRAS) [3]	NRAS/KRAS (ratio of KD value with respect to NRAS to KD value with respect to KRAS) [2]	HRAS/KRAS (ratio of KD value with respect to HRAS to KD value with respect to KRAS) [3]	also measured
CCCCO[C@@H]1C[C@H]2C(=O)NC3(CCC3)C(=O)N(C)[C@@H](C3CCCC3)C(=O)N(C)[C@H](C(=O)N3CCOCC3)CC(=O)N(C)[C@@H](CC(C)C)C(=O)N[C@@H]([C@@H](C)CC)C(=O)N(C)CC(=O)N(C)[C@H]3CCCCCN(C3=O)[C@@H](Cc3ccc(C(F)(F)F)cc3)C(=O)N(C)CC(=O)N[C@@H](CCc3cc(F)c(C(F)(F)F)c(F)c3)C(=O)N2C1 [PP1004]		B (a compound having 3 or more and less than 10 is denoted as B)	B (a compound having 3 or more and less than 10 is denoted as B)			Kd ([1]; SPR, Single Cycle Kinetics): 3.7 nM
CC[C@H](C)[C@@H]1NC(=O)[C@H](CC(C)C)N(C)C(=O)C[C@@H](C(=O)N(C)C)N(C)C(=O)[C@H](C2CCCC2)N(C)C(=O)C2(CCCC2)NC(=O)[C@@H]2CCCN2C(=O)[C@H](CCc2cc(F)c(C(F)(F)F)c(F)c2)NC(=O)CN(C)C(=O)[C@H](Cc2ccc(C(F)(F)F)cc2)N2CCCCC[C@@H](C2=O)N(C)C(=O)CN(C)C1=O [PP0507]	0.94			B (a compound having 3 or more and less than 10 is denoted as B)	B (a compound having 3 or more and less than 10 is denoted as B)	
CCO[C@@H]1C[C@H]2C(=O)NC3(CC(C)(C)C3)C(=O)N(C)[C@@H](C3CCCC3)C(=O)N(C)[C@H](C(=O)N(C)C)CC(=O)N(C)[C@@H](CC3CC3)C(=O)N[C@@H]([C@@H](C)CC)C(=O)N(C)CC(=O)N(C)[C@H]3C/C=C\CCN(C3=O)[C@@H](Cc3ccc(C(F)(F)F)cc3)C(=O)N(C)CC(=O)N[C@@H](CCc3ccc(C(F)(F)F)c(OC)c3)C(=O)N2C1 [PP1563]						Kd ([1]; SPR, Single Cycle Kinetics, 1:1 binding model): 0.048 nM; NRAS/KRAS (ratio of KD value for NRAS to KD value for KRAS) ([2]; KD ratio class): A (a compound having 10 or more and less than 20 is denoted as A); HRAS/KRAS (ratio of KD value for HRAS to KD value for KRAS) ([3]; KD ratio class): A (a compound having 10 or more and less than 20 is denoted as A)
CCCN1C(=O)CN(C)C(=O)CN(C)C(=O)[C@H]([C@@H](C)CC)NC(=O)[C@H](CC(C)C)N(C)C(=O)C[C@@H](C(=O)N(C)C)N(C)C(=O)[C@H](C2CCCC2)N(C)C(=O)[C@](C)(C2CC2)NC(=O)[C@@H]2CCCN2C(=O)[C@H](CCc2cc(F)c(C(F)(F)F)c(F)c2)NC(=O)CN(C)C(=O)[C@@H]1Cc1ccc(C(F)(F)F)cc1 [PP0734] ([NMeL]I[Sar][Sar][NPrPhe(4-CF3)][Sar][hPhe(3,5-F2-4-CF3)]P[X8][NMeGly(cPent)][NMeD]-NMe2; lactam N-11)	0.38			B (a compound having 3 or more and less than 10 is denoted as B)	C (A compound having a KD ratio of 0.1 or more and less than 3 is denoted as C)	
CCCN1C(=O)CN(C)C(=O)CN(CC)C(=O)[C@H]([C@@H](C)CC)NC(=O)[C@H](CC(C)C)N(C)C(=O)C[C@@H](C(=O)N2CCOCC2)NC(=O)[C@H](C2CCCC2)N(C)C(=O)C2(CCCC2)NC(=O)[C@@H]2C[C@@H](OCC)CN2C(=O)[C@H](CCc2ccc(C(F)(F)F)c(Cl)c2)NC(=O)CN(C)C(=O)[C@@H]1Cc1ccc(C(F)(F)F)cc1 [PP0335] ([NMeL]I[NEtG][Sar][NPrPhe(4-CF3)][Sar][hPhe(3-Cl-4-CF3)][Hyp](Et)[Ac5c][NMeGly(cPent)]D-Morpholide; lactam N-11)	1.3	B (a compound having 3 or more and less than 10 is denoted as B)	C (A compound having a KD ratio of 0.1 or more and less than 3 is denoted as C)			
CCCN1C(=O)[C@@H]2CCN2C(=O)[C@H](C)N(CC)C(=O)[C@H]([C@@H](C)CC)NC(=O)[C@H](CC(C)C)N(C)C(=O)C[C@@H](C(=O)N2CCOCC2)N(C)C(=O)[C@H](C2CCCC2)N(C)C(=O)C2(CCCC2)NC(=O)[C@@H]2CCCN2C(=O)[C@H](CCc2ccc(C(F)(F)F)c(Cl)c2)NC(=O)CN(C)C(=O)[C@@H]1Cc1ccc(C(F)(F)F)cc1 [PP0152] ([NMeL]I[NEtAla][Aze][NPrPhe(4-CF3)][Sar][hPhe(3-Cl-4-CF3)]P[Ac5c][NMeGly(cPent)][NMeD]-Morpholide; lactam N-11)	2.8	C (A compound having a KD ratio of 0.1 or more and less than 3 is denoted as C)	B (a compound having 3 or more and less than 10 is denoted as B)			

More lines, main results first:

Kd [1, 4] [nM]	SMILES	NRAS/KRAS (ratio of KD value for NRAS to KD value for KRAS) [2]	HRAS/KRAS (ratio of KD value for HRAS to KD value for KRAS) [3]	NRAS/KRAS (ratio of KD value with respect to NRAS to KD value with respect to KRAS) [2]	HRAS/KRAS (ratio of KD value with respect to HRAS to KD value with respect to KRAS) [3]	also measured
0.36	CCCN1C(=O)[C@@H]2CCN2C(=O)[C@H](C)N(C)C(=O)[C@H]([C@@H](C)CC)NC(=O)[C@H](CC(C)C)N(C)C(=O)C[C@@H](C(=O)N2CCOCC2)NC(=O)[C@H](C2CCCC2)N(C)C(=O)C2(CCCC2)NC(=O)[C@@H]2C[C@@H](OCC)CN2C(=O)[C@H](CCc2ccc(C(F)(F)F)c(Cl)c2)NC(=O)CN(C)C(=O)[C@@H]1Cc1ccc(C(F)(F)F)cc1 [PP0347] ([NMeL]I[NMeA][Aze][NPrPhe(4-CF3)][Sar][hPhe(3-Cl-4-CF3)][Hyp](Et)[Ac5c][NMeGly(cPent)]D-Morpholide; lactam N-11)	C (A compound having a KD ratio of 0.1 or more and less than 3 is denoted as C)	B (a compound having 3 or more and less than 10 is denoted as B)			
0.075	CCCC[C@H]1C(=O)N[C@@H]([C@@H](C)CC)C(=O)N(C)CC(=O)N(C)[C@H]2C/C=C\CCN(C2=O)[C@@H](Cc2ccc(C)cc2)C(=O)N(C)CC(=O)N[C@@H](CCc2cc(F)c(C(F)(F)F)c(F)c2)C(=O)N2C[C@H](OCC)C[C@H]2C(=O)NC2(CCC2)C(=O)N(C)[C@@H](C2CCCC2)C(=O)N(C)[C@H](C(=O)N(C)C)CC(=O)N1C [PP2798]					NRAS/KRAS (ratio of KD value with respect to GDP-bound NRAS wild-type protein to KD value with respect to KRAS) ([2]; SPR KD ratio NRAS/KRAS, class symbols): A (a compound having 10 or more and less than 20 is denoted as A); HRAS/KRAS (ratio of KD value with respect to GDP-bound HRAS wild-type protein to KD value with respect to KRAS) ([3]; SPR KD ratio HRAS/KRAS, class symbols): A (a compound having 10 or more and less than 20 is denoted as A)
0.071	CCCN1C(=O)[C@@H]2CCN2C(=O)[C@H](C)N(C)C(=O)[C@H]([C@@H](C)CC)NC(=O)[C@H](CC)N(C)C(=O)C[C@@H](C(=O)N2CCOCC2)N(C)C(=O)[C@H](C2CCCC2)N(C)C(=O)C2(CCCC2)NC(=O)[C@@H]2CC(F)(F)CN2C(=O)[C@H](CCc2ccc(C(F)(F)F)c(Cl)c2)NC(=O)CN(C)C(=O)[C@@H]1Cc1ccc(C(F)(F)F)cc1 [PP0206] ([NMeAbu]I[NMeA][Aze][NPrPhe(4-CF3)][Sar][hPhe(3-Cl-4-CF3)][Pro(4,4-F2)][Ac5c][NMeGly(cPent)][NMeD]-Morpholide; lactam N-11)	C (A compound having a KD ratio of 0.1 or more and less than 3 is denoted as C)	B (a compound having 3 or more and less than 10 is denoted as B)			
0.31	CC[C@H](C)[C@@H]1NC(=O)[C@H](CC(C)C)N(C)C(=O)C[C@@H](C(=O)N2CCOCC2)N(C)C(=O)[C@H](C2CCCC2)N(C)C(=O)C2(CCCCC2)NC(=O)[C@@H]2CCCN2C(=O)[C@H](CCc2cc(F)c(C(F)(F)F)c(F)c2)NC(=O)CN(C)C(=O)[C@H](Cc2ccc(C(F)(F)F)cc2)N2CCCC[C@@H](C2=O)N(C)C(=O)CN(C)C1=O [PP0561]			B (a compound having 3 or more and less than 10 is denoted as B)	B (a compound having 3 or more and less than 10 is denoted as B)	
0.039	CC[C@H](C)[C@@H]1NC(=O)[C@H](CC)N(C)C(=O)C[C@@H](C(=O)N(C)C)N(C)C(=O)[C@H](C2CCCC2)N(C)C(=O)C2(CCC2)NC(=O)[C@@H]2C[C@@H](N3CCC(F)(F)CC3)CN2C(=O)[C@H](CCc2cc(F)c(C(F)(F)F)c(F)c2)NC(=O)CN(C)C(=O)[C@H](Cc2ccc(C(F)(F)F)cc2)N2CCCC[C@@H](C2=O)N(C)C(=O)CN(C)C1=O [PP0656]			C (A compound having a KD ratio of 0.1 or more and less than 3 is denoted as C)	C (A compound having a KD ratio of 0.1 or more and less than 3 is denoted as C)	
0.04	CC[C@H](C)[C@@H]1NC(=O)[C@H](CC(C)C)N(C)C(=O)C[C@@H](C(=O)N2CCOCC2)N(C)C(=O)[C@H](C2CCCC2)N(C)C(=O)C2(CC(F)(F)C2)NC(=O)[C@@H]2CCCN2C(=O)[C@H](CCc2cc(F)c(C(F)(F)F)c(F)c2)NC(=O)CN(C)C(=O)[C@H](Cc2ccc(C(F)(F)F)cc2)N2CCCC[C@@H](C2=O)N(C)C(=O)CN(C)C1=O [PP0562]			B (a compound having 3 or more and less than 10 is denoted as B)	B (a compound having 3 or more and less than 10 is denoted as B)	
0.042	CCO[C@@H]1C[C@H]2C(=O)NC3(CCC3)C(=O)N(C)[C@@H](C3CCCC3)C(=O)N(C)[C@H](C(=O)N3CCOCC3)CC(=O)N(C)[C@@H](CC3CC3)C(=O)N[C@@H]([C@@H](C)CC)C(=O)N(C)CC(=O)N(C)[C@H]3CCCCN(C3=O)[C@@H](Cc3ccc(C(F)(F)F)cc3)C(=O)N(C)CC(=O)N[C@@H](CCc3cc(F)c(C(F)(F)F)c(F)c3)C(=O)N2C1 [PP0712]			C (A compound having a KD ratio of 0.1 or more and less than 3 is denoted as C)	C (A compound having a KD ratio of 0.1 or more and less than 3 is denoted as C)	
